pIC50: −log10 of the molar value. Counter-ions that a name gives are not always drawn.
Target: T1, P2X7 (Homo sapiens, UniProt Q99572)
T1 sequence (Q99572 1-595): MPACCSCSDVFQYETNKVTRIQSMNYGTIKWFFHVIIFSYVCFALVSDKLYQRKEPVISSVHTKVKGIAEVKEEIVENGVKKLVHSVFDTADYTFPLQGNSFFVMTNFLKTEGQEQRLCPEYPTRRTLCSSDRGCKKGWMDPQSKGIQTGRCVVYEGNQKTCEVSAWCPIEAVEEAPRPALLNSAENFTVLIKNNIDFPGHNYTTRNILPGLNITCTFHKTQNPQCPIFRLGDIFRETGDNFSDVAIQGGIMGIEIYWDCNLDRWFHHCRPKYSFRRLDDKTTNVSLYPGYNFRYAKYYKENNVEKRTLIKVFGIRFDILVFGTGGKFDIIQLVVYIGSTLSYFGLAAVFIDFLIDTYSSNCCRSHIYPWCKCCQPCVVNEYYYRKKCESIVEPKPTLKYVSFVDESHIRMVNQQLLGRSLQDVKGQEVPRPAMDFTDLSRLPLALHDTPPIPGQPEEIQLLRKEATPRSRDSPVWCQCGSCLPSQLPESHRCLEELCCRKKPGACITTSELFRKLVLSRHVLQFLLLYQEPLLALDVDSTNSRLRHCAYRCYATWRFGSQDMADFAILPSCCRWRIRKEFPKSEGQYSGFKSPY
Assay: YO-PRO-1 dye uptake assay in U373 cells stably expressing P2X7
Format: cell-based
Parameters: The complete open reading frame of human P2X7 was amplified from Incyte clone 148057; expressed in transfected cells
Conditions: dye uptake through P2X7, U373 cells, 300 μM BzATP, 5 μM YO-PRO-1, test compounds 30 nM to 3 μM; read-out: IC50
Description: Following a 24-hr exposure to DNA, cells were trypsinized and re-seeded at low density in the presence of […] G418. After incubation for 2 weeks, isolated clones were selected with cloning cylinders and replated in […] G418. Cell clones were then expanded. Clones were screened for P2X7 by applying ATP and recording the resultant current using patch clamp electrophysiology.
U373 cells stably expressing P2X7 were used to screen drugs via a dye uptake assay. Cells were plated overnight on collagen coated 96-well plates at a density of 35,000 cells per well. The following day, culture media was replaced with Mg^++ and Ca^++-free Hank's balanced salt solution and various concentrations of test compounds ranging from 30 nM to 3 μM. Cells were then allowed to incubate with test compounds at 37° C. for 20 minutes. Following this incubation period YO-PRO-1 dye (Molecular Probes, Eugene, Oreg., final concentration 5 μM) and 2′-& 3′-O-(4-Benzolybenzoyl)-Adenosine 5′-triphosphate (Sigma Chemical, St Louis, Mo., final concentration 300 μM) were added to the cells sequentially. Cells were then incubated at 37° C. for 1.5 hours. […] Fluorescence in the presence of test substances was compared to that in the absence of test substances (control).

Q: With `CC(C)(C1=N[C@@H](c2ccccc2)[C@@H](c2ccccc2)N1)c1ccc(Cl)cc1` as the compound, how does the pIC50 read?
A: 6.27

Q: With `CC(C)(CC1=N[C@@H](c2ccccc2)[C@@H](c2ccccc2)N1)c1ccccc1` as the compound, how does the pIC50 read?
A: 8.00

Q: How did the pIC50 turn out when `C[C@@H](CC1=N[C@@H](c2ccccc2)[C@@H](c2ccccc2)N1)c1ccccc1` was run?
A: 7.89

Q: With `C[C@@]1(c2ccccc2)N=C(COC2CCOc3ccccc32)N[C@@H]1c1ccccc1` (stereo partly drawn) as the compound, how does the pIC50 read?
A: 6.31

Q: `C[C@@]1(c2cccc(F)c2)N=C(NCc2cccc(F)c2)N[C@@H]1c1cccc(F)c1` was tested. Which pIC50 did it give?
A: 7.31

Q: With `C[C@@]1(c2ccc(F)cc2)N=C(NCc2ccc(F)cc2)N[C@@H]1c1ccc(F)cc1` as the compound, how does the pIC50 read?
A: 6.86

Q: With `C[C@@]1(c2ccc(F)cc2)N=C(NCc2cccc(F)c2)N[C@@H]1c1ccc(F)cc1` as the compound, how does the pIC50 read?
A: 6.45

Q: How did the pIC50 turn out when `C[C@@]1(c2cccc(F)c2)N=C(NCc2ccc(F)cc2)N[C@@H]1c1cccc(F)c1` was run?
A: 7.43

Q: How did the pIC50 turn out when `Fc1ccc(CNC2=N[C@@H](c3ccc(F)cc3)[C@@H](c3ccc(F)cc3)N2)cc1` was run?
A: 6.47

Q: `CC(Oc1ccccc1)C1=N[C@@](C)(c2ccccc2)[C@@H](c2ccccc2)N1` (relative stereo) [2-(1-Phenoxyethyl)-cis-4,5-diphenyl-4-methyl-4,5-dihydro-1H-imidazole trifluoroacetate] was tested. Which pIC50 did it give?
A: 6.45

Q: How did the pIC50 turn out when `CC(C1=N[C@](C)(c2ccccc2)[C@H](c2ccccc2)N1)c1ccccc1` (relative stereo) [2-(1-Phenyl-1-ethyl)-cis-4,5-diphenyl-4-methyl-4,5-dihydro-1H-imidazole trifluoroacetate] was run?
A: 7.17

Q: `C[C@]1(c2ccccc2)N=C(Cc2ccc(F)cc2F)N[C@H]1c1ccccc1` (relative stereo) [2-(2,4-Difluorobenzyl)-cis-4,5-diphenyl-4-methyl-4,5-dihydro-1H-imidazole trifluoroacetate] was tested. Which pIC50 did it give?
A: 7.80

Q: How did the pIC50 turn out when `C[C@]1(c2ccccc2)N=C(Cc2ccc(F)c(F)c2)N[C@H]1c1ccccc1` (relative stereo) [2-(3,4-Difluorobenzyl)-cis-4,5-diphenyl-4-methyl-4,5-dihydro-1H-imidazole trifluoroacetate] was run?
A: 7.72

Q: With `C[C@]1(c2ccccc2)N=C(Cc2cccc(Cl)c2)N[C@H]1c1ccccc1` (relative stereo) [2-(3-Chlorobenzyl)-cis-4,5-diphenyl-4-methyl-4,5-dihydro-1H-imidazole trifluoroacetate] as the compound, how does the pIC50 read?
A: 7.38

Q: `C[C@@]1(c2cccc(F)c2)N=C(Cc2ccc(F)cc2)N[C@@H]1c1cccc(F)c1` (relative stereo) [2-(4-Fluorobenzyl)-cis-4,5-bis-(3-fluorophenyl)-4-methyl-4,5-dihydro-1H-imidazole trifluoroacetate] was tested. Which pIC50 did it give?
A: 7.49

Q: How did the pIC50 turn out when `C[C@]1(c2ccccc2)N=C(Cc2ccc(F)cc2)N[C@H]1c1ccccc1` (relative stereo) [2-(4-Fluorobenzyl)-cis-4,5-diphenyl-4-methyl-4,5-dihydro-1H-imidazole trifluoroacetate] was run?
A: 7.36

Q: With `C[C@]1(c2ccccc2)N=C(OCC2CCCCC2)N[C@H]1c1ccccc1` (relative stereo) [2-(Cyclohexylmethoxy)-cis-4,5-diphenyl-4-methyl-4,5-dihydro-1H-imidazole trifluoroacetate] as the compound, how does the pIC50 read?
A: 6.56

Q: How did the pIC50 turn out when `C[C@@]1(c2cccc(F)c2)N=C(CCc2ccccc2)N[C@@H]1c1cccc(F)c1` (relative stereo) [2-Phenethyl-cis-4,5-bis-(3-fluorophenyl)-4-methyl-4,5-dihydro-1H-imidazole hydrochloride] was run?
A: 7.18

Q: `CC(C1=N[C@](C)(c2ccccc2)[C@H](c2ccccc2)N1)c1ccc(Cl)cc1` (relative stereo) [2-[1-(4-Chlorophenyl)-1-ethyl]-cis-4,5-diphenyl-4-methyl-4,5-dihydro-1H-imidazole trifluoroacetate] was tested. Which pIC50 did it give?
A: 6.48

Q: How did the pIC50 turn out when `CC(Cc1ccccc1)C1=N[C@@H](c2ccccc2)[C@@H](c2ccccc2)N1` (relative stereo) [2-[1-Methyl-2-phenylethyl]-cis-4,5-diphenyl-4,5-dihydro-1H-imidazole trifluoroacetate] was run?
A: 6.24

Q: How did the pIC50 turn out when `CC(OCC1=N[C@@](C)(c2ccccc2)[C@@H](c2ccccc2)N1)C1CCCC1` (relative stereo) [2-[(1-Cyclopentyl-1-ethoxy)methyl]-cis-4,5-diphenyl-4-methyl-4,5-dihydro-1H-imidazole hydrochloride] was run?
A: 6.80

Q: How did the pIC50 turn out when `CC(OCC1=N[C@@](C)(c2ccccc2)[C@@H](c2ccccc2)N1)C1CC1` (relative stereo) [2-[(1-Cyclopropyl-1-ethoxy)methyl]-cis-4,5-diphenyl-4-methyl-4,5-dihydro-1H-imidazole trifluoroacetate] was run?
A: 6.40

Q: With `C#CC(CCC)OCC1=N[C@@](C)(c2ccccc2)[C@@H](c2ccccc2)N1` (relative stereo) [2-[(1-Ethynyl-1-butoxy)methyl]-cis-4,5-diphenyl-4-methyl-4,5-dihydro-1H-imidazole hydrochloride] as the compound, how does the pIC50 read?
A: 6.13

Q: With `C[C@@]1(c2ccccc2)N=C(COc2ccccc2Cl)N[C@@H]1c1ccccc1` (relative stereo) [2-[(2-Chlorophenoxy)methyl]-cis-4,5-diphenyl-4-methyl-4,5-dihydro-1H-imidazole hydrochloride] as the compound, how does the pIC50 read?
A: 6.13

Q: `C[C@@]1(c2ccccc2)N=C(COc2cccc(F)c2)N[C@@H]1c1ccccc1` (relative stereo) [2-[(3-Fluorophenoxy)methyl]-cis-4,5-diphenyl-4-methyl-4,5-dihydro-1H-imidazole trifluoroacetate] was tested. Which pIC50 did it give?
A: 6.98

Q: `C[C@@]1(c2ccccc2)N=C(COC2CCC2)N[C@@H]1c1ccccc1` (relative stereo) [2-[(Cyclobutoxy)methyl]-cis-4,5-diphenyl-4-methyl-4,5-dihydro-1H-imidazole trifluoroacetate] was tested. Which pIC50 did it give?
A: 6.14

Q: How did the pIC50 turn out when `C[C@@]1(c2ccccc2)N=C(COCC2CCCC2)N[C@@H]1c1ccccc1` (relative stereo) [2-[(Cyclopentylmethoxy)methyl]-cis-4,5-diphenyl-4-methyl-4,5-dihydro-1H-imidazole hydrochloride] was run?
A: 6.71

Q: `C[C@@]1(c2ccccc2)N=C(COC2CCCC2)N[C@@H]1c1ccccc1` (relative stereo) [2-[(Cyclopentyloxy)methyl]-cis-4,5-diphenyl-4-methyl-4,5-dihydro-1H-imidazole hydrochloride] was tested. Which pIC50 did it give?
A: 6.31

Q: How did the pIC50 turn out when `C[C@@]1(c2ccccc2)N=C(COc2ccccc2)N[C@@H]1c1ccccc1` (relative stereo) [2-[(Phenoxy)methyl]-cis-4,5-diphenyl-4-methyl-4,5-dihydro-1H-imidazole trifluoroacetate] was run?
A: 6.39

Q: How did the pIC50 turn out when `C[C@@]1(c2ccccc2)N=C(COCC2CC2)N[C@@H]1c1ccccc1` (relative stereo) [2-[[(Cyclopropyl)methoxy]methyl]-cis-4,5-diphenyl-4-methyl-4,5-dihydro-1H-imidazole trifluoroacetate] was run?
A: 6.17

Q: How did the pIC50 turn out when `C[C@@]1(c2ccccc2)N=C(NCc2ccc(F)cc2)N[C@@H]1c1ccccc1` (relative stereo) [(cis-4,5-Diphenyl-4-methyl-4,5-dihydro-1H-imidazol-2-yl)-(4-fluorobenzyl)amine hydrochloride] was run?
A: 7.20

Q: `C[C@@]1(c2ccccc2)N=C(CCc2ccccc2)N[C@@H]1c1ccccc1` (relative stereo) [cis-4,5-diphenyl-4-methyl-2-(2-phenylethyl)-4,5-dihydro-1H-imidazole] was tested. Which pIC50 did it give?
A: 7.66

Q: How did the pIC50 turn out when `C[C@@]1(c2ccccc2)N=C(CSCc2ccccc2)N[C@@H]1c1ccccc1` (relative stereo) [cis-4,5-diphenyl-4-methyl-2-[(benzylsulfanyl)methyl]-4,5-dihydro-1H-imidazole] was run?
A: 6.28

Source: patent US7741493B2, “Heterocyclic compounds as P2X7 ion channel blockers” (Aventis Pharmaceuticals Inc., priority 2003, dated 2010)
